Key:
[1] = target: Bromodomain-containing protein 4 (Homo sapiens, UniProt O60885); test: Inhibition of human BRD4 isoform long bromodomain 1 (44 to 168 residues) expressed in Escherichia coli BL21 after 1 hr by BROMOscan assay
[2] = target: T1, Bromodomain-containing protein 1 (Homo sapiens, UniProt O95696); test: Inhibition of human BRPF2 (556 to 688 residues) expressed in Escherichia coli BL21 after 1 hr by BROMOscan assay
T1 sequence (O95696 whole entry): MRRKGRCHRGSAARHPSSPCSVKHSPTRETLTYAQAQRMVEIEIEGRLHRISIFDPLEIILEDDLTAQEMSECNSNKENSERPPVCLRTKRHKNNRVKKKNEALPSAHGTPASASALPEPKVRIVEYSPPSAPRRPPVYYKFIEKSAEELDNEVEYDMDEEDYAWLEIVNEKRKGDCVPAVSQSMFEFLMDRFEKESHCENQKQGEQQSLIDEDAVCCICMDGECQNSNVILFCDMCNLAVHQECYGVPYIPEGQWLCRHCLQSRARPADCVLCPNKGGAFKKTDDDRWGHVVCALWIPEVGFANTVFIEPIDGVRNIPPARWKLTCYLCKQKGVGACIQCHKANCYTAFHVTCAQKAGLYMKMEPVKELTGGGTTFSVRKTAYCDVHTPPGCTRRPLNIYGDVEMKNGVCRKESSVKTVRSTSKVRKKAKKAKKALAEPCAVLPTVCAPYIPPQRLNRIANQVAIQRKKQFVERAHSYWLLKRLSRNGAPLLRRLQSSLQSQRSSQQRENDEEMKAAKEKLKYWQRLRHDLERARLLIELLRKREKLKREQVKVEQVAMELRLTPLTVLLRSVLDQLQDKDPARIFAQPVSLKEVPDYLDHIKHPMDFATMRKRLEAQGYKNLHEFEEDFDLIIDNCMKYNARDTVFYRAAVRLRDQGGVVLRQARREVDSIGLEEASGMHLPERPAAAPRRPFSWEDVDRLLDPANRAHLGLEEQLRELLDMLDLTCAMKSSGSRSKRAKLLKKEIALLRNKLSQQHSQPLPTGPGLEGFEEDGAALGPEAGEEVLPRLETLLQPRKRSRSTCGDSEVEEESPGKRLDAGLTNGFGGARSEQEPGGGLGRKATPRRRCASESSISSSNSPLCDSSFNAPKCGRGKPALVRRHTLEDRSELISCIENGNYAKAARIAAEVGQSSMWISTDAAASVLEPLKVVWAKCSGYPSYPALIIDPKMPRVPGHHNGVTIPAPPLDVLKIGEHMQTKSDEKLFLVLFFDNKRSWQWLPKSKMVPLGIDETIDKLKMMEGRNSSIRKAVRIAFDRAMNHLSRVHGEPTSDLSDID

Peregrin = target: T2, Peregrin (Homo sapiens, UniProt P55201); test: Inhibition of human BRPF1 (627 to 740 residues) expressed in Escherichia coli BL21 after 1 hr by BROMOscan assay
T2 sequence (P55201 whole entry): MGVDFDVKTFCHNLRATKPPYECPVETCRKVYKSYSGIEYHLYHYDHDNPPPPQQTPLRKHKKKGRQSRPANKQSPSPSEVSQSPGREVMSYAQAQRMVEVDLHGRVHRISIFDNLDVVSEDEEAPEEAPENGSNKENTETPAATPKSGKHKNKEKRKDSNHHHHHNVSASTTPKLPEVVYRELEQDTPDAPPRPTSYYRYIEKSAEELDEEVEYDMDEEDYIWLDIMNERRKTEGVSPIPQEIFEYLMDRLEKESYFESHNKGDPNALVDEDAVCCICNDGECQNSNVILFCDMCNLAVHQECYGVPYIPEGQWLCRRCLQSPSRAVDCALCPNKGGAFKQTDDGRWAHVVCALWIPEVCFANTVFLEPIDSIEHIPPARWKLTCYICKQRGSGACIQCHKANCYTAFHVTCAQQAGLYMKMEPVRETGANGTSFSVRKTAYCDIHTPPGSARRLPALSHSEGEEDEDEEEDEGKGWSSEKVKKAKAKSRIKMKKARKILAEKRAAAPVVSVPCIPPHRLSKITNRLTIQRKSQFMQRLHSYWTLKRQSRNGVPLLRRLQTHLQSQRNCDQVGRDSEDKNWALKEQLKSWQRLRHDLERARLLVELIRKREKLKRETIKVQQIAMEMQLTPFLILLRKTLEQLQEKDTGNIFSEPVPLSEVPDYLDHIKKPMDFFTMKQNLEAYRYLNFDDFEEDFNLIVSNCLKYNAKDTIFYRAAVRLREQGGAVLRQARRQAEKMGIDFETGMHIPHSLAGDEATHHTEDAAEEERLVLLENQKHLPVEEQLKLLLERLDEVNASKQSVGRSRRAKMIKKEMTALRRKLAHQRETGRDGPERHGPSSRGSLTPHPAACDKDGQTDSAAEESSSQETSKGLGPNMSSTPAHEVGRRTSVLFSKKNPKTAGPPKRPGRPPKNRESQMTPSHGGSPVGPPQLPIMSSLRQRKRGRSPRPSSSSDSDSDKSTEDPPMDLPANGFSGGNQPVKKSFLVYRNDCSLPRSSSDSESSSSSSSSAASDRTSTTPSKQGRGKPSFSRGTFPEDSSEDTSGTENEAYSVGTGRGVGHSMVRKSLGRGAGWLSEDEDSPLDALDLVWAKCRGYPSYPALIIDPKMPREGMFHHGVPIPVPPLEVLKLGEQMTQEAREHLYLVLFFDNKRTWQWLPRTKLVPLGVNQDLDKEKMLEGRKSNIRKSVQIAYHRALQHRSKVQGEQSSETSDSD

[3] = target: T3, Bromodomain-containing protein 9 (Homo sapiens, UniProt Q9H8M2)
T3 sequence (Q9H8M2 whole entry): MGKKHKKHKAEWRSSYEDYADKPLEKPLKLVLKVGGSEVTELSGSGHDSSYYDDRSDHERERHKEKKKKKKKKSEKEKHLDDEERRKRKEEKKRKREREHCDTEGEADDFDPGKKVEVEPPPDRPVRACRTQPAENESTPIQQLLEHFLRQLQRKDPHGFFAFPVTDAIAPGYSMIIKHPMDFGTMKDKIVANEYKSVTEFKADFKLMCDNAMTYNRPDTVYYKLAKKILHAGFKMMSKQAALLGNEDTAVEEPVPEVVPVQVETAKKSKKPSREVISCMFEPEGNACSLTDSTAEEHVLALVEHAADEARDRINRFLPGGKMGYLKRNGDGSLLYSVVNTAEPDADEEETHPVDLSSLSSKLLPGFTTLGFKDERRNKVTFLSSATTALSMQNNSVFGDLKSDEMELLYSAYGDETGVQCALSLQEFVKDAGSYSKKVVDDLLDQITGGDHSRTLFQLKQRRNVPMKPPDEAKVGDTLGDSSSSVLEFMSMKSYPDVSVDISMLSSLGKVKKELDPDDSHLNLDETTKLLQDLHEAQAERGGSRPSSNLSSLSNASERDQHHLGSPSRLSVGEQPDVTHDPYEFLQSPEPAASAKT
Description: Inhibition of human BRD9 (130 to 259 residues) expressed in Escherichia coli BL21 after 1 hr by BROMOscan assay

Row | SMILES | IC50 [1] | IC50 [2] | IC50 (Peregrin) | IC50 [3]
1 | Cn1c(=O)ccc2cc(S(=O)(=O)Nc3ccccc3)ccc21 | 37 µM | 7.8 µM | 1 µM | 9.8 µM
2 | COc1cc(C#N)ccc1S(=O)(=O)Nc1ccc2c(c1)cc(C(C)C)c(=O)n2C |  | 3.3 µM | 0.17 µM | 9.3 µM
3 | COc1cc(C#N)ccc1S(=O)(=O)Nc1ccc2c(c1)cc(C)c(=O)n2C | 3.7 µM | 0.046 µM | 0.0031 µM | 0.52 µM
